Entries after “also recorded” stand apart in the source; their conditions may differ.
Legend:
[1] = system: calstabin1/RyR1 complex; assay: RyR1 biochemical analysis (immunoprecipitation): oxidation, phosphorylation, calstabin1 interaction; format: in vivo, mouse; details: for RyR function: associated with VIDD prevention in the murine and porcine models; for RyR oxidation, and phosphorylation: statement in discussion for both compounds
Procedure: Muscle biopsies were homogenized in 150 μl of buffer containing 5% SDS, 5% beta-mercaptoethanol, 10% glycerol, 10 mM EDTA and 50 mM Tris/HCl buffer (pH=8.0). Each sample was immediately denatured at 90 °C for 4 min. After centrifugation (5000 rpm) at 4 °C, supernatant protein concentrations were measured in duplicate using the BCA protein assay, equilibrated at the same concentration by dilution with loading buffer and aliquoted at 2 μg/μl. RyR1 was immunoprecipitated from 250 μg of homogenate using an anti-RyR antibody (4 μg RyR1-1327) in 0.5 ml of a modified RIPA buffer (50 mM Tris-HCl pH 7.4, 0.9% NaCl, 5.0 mM NaF, 1.0 mM Na3VO4, 1% Triton-X100, and protease inhibitors) for 1 hr at 4 °C. The immune complexes were incubated with protein A Sepharose beads (Amersham Pharmacia) at 4 °C for 1 hr and the beads were washed three times with buffer. Proteins were separated on SDS-PAGE gels (4-20% gradient) and transferred onto nitrocellulose membranes for 2 hr at 200 mA (SemiDry transfer blot, Bio-Rad). To prevent non-specific antibody binding, the membranes were incubated with blocking solution (LICOR Biosciences) and washed with Tris-buffered saline with 0.1% Tween-20.
Blots were respectively incubated with primary antibody to RyR1 (RyR1-1327, an affinity-purified rabbit polyclonal antibody raised against a KLH-conjugated peptide with the amino acid sequence CAEPDTDYENLRRS, corresponding to residues 1327-1339 of mouse skeletal RyR1, with an additional cysteine residue added to the amino terminus), and affinity purified with the unconjugated peptide. The inventors also used antibody to calstabin1 (1:2500 in blocking buffer, LICOR Biosciences); phospho-epitope-specific antibody to human RyR2 phosphorylated on Ser-2808 (1:5,000), which detects PKA-phosphorylated mouse RyR1 (on Ser-2844) and RyR2 (on Ser-2808); antibody to S-nitrosylated cysteine residues (1:1000, Sigma). To determine RyR1 oxidation, the immunoprecipitate was treated with 2, 4-dinitrophenyl hydrazine, and the derivatized carbonyls were detected using an OxyBlot protein oxidation detection Kit (catalog S7150, Chemicon International Inc.). After three washes, membranes were incubated with infrared-labeled secondary antibodies. Control samples were analyzed on each gel for normalization and total levels of RyR1 were not different between groups.
Diaphragm samples from the above experiments were frozen and solubilized to further investigate the biochemical properties of the RyR1 macromolecular complex.

[2] = system: piglet diaphragm (VIDD); assay: Trans-diaphragmatic pressure (Pdi)-frequency relationship after 72 hours of mechanical ventilation in piglets; format: in vivo; details: for prevention of VIDD in porcine model: general statement, piglets
Procedure: As previously described^18,25, twelve piglets (15-20 kg) were separated in two groups of six animals/each. In both groups, oxygenation was maintained with a fraction of inspired oxygen (FIO2) ranging from 25 to 35%, tidal volume between 10 and 12 ml·kg^−1 body weight and breathing frequency from 15 to 30 cycles/min to maintain normocapnia. In the first group (MV group), piglets were mechanically ventilated using CMV, with a positive end-expiratory pressure level at 5 cm H2O. The absence of spontaneous breathing was verified on the ventilator trend graphs, and the diaphragm electromyographic activity was measured to ensure the absence of diaphragm electrical activity. In the second group (control group), piglets were ventilated using ASV, with settings in phase with the piglet body weight (inspiratory flow trigger at 0.3 L·min^−1, percentage of mechanical ventilation between 100 and 150%, positive end-expiratory pressure level at 5 cm H2O, and expiratory trigger at 25% of the peak inspiratory flow). The diaphragm electromyographic activity was assessed to verify that piglets could breathe spontaneously. Both groups received the same care, except for the MV mode.
Briefly, piglets were anesthetized by intravenous injection of 5-6 mg kg^−1 pentobarbital sodium, intubated with a cuffed endotracheal tube and mechanically ventilated (Galileo®; Hamilton Medical AG, Rhazuns, Switzerland). Anesthesia was maintained with continuous intravenous infusion of 15-20 mg·kg^−1 propofol, 0.1-0.3 mg·kg^−1 midazolam and 3-4 mg·kg^−1·h^−1 ketamine. The level of sedation was monitored by using a bispectral index system (BIS®; Aspect, Norwood, MA). Heating pads were employed, as needed, to maintain the normal body temperature of 38.5-39.5 °C. […]
Arterial carbon dioxide pressure was monitored using a capnograph (Deltatrac®; Datex-Ohmeda, Helsinki, Fin-land) and verified by arterial blood gas analysis (iSTAT®; Abbott, Abbott Park, IL). […]
The diaphragm contractile function was assessed in vivo by measuring the transdiaphragmatic pressure (Pdi)^18. […]

SMILES	RyR function [1]	biochemical signature of leaky RyR1 (oxidation, ser2844 phosphorylation, calstabin1 depletion) ([1]; mouse diaphragm after 6 h MV, 4F4t-NeuroP IV)	calstabin1/RyR1 complex ([1]; mouse diaphragm after 6 h MV, calstabin1/RyR1 interaction)	RyR oxidation, and phosphorylation [1]	prevention of VIDD in porcine model [2]	reduction of trans-diaphragmatic pressure (Pdi) / VIDD in piglets ([2]; IV bolus 0.250 mg·kg^−1 then 0.025 mg·kg^−1 every 12 hours, 72 h MV)
CC/C=C\C/C=C\C/C=C\C[C@@H]1[C@H](/C=C/C(O)CCC(=O)O)[C@@H](O)C[C@H]1O (mixture of isomers) [Compound 4F4t-NeuroP, 4(RS)-4-F4t-Neuroprostane]	normalization of RyR function	this post-translational remodeling was prevented; also recorded: fully prevented	Stabilizes the Complex Calstabin1/RyR1	prevent RyR oxidation, and phosphorylation	prevent with a high efficiency VIDD	
CC/C=C\C[C@@H]1[C@H](/C=C/C(O)CCC(=O)O)[C@@H](O)C[C@H]1O (mixture of isomers) [VB558, (E)-6-((1S,2R,3R,5S)-3,5-dihydroxy-2-((Z)-pent-2-en-1-yl)cyclopentyl)-4-hydroxyhex-5-enoic Acid]	normalization of RyR function			prevent RyR oxidation, and phosphorylation	prevent with a high efficiency VIDD	prevents VIDD in piglets after 72 hours of ventilation; also recorded: fully prevented

Reference: patent US20260373164A1, “4(RS)-4-F4-NEUROPROSTANE DERIVATIVES (4-F4T-NEUROP) AND THEIR USE IN TREATING VENTILATOR INDUCED DIAPHRAGMATIC DYSFUNCTION AND OTHER DISEASES” (INSTITUT NATIONAL DE LA SANTÉ ET DE LA RECHERCHE MÉDICALE, priority 2022, published 2026)
